This data set is described as follows: recombinant barcode read abundance after kanamycin selection (control-corrected) (log10(CPM+1)); higher = more efficient recombination; sequences stand for … in AGTGCAGAGAAAATCGGCCAGTTTTCTCTGCCTGCAGTCCGCATGCCGT…AGATTTATGCAGCGGACTGCCTTTCTCCCAAAGTGATAAACCGGACAGTATCATGGACCGGTTTTCCCGGTAATCCGTATTTGCAAGGTTGGTTTCACT; site = the 11-nt target. The method, then:
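Pooled E. coli target-specificity screen for the IS621 bridge recombinase. Each library plasmid pairs an 11-nt target (CT core) with a bridge RNA whose target-binding loop (9-nt LTG + 4-nt RTG) is reprogrammed; the rest of the 177-nt WT IS621 bridge RNA scaffold is fixed. The plasmid is co-electroporated with a WT donor plasmid; recombinase is induced with 0.1 mM IPTG and recombinants are selected on kanamycin. Recombinant barcodes are sequenced, converted to CPM, averaged over two biological replicates and corrected by the unselected control CPM. Molecule = full bridge RNA written as DNA: LTG = specificity nt 1-9, RTG = reverse complement of specificity nt 8-11, in the WT scaffold.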
In the case of “ACTTCTTCTTGGGTTCTAACCTGTTGCCT (site ACTTCTACTCG)”, the “recombinant barcode read abundance (log10)” value stood at 0.124.
The same measure for “ACTTCTTCTTGGGTTCTAACCTGTTGCCT (site ACTTCTTCTAG)”: 0.0747; for “ACTTGCTCTTGGGTTCTAACCTGTTGCTT (site ACTAGCTCTAG)”: 0.448; for “ACTTGCTCTTGGGTTCTAACCTGTTGCTT (site ACTTGCTCTAA)”: 0.136.
The same measure for “ACTTGGACTTGGGTTCTAACCTGTTGCAT (site ACTTGGACTAT)”: 1.79; for “ACTTGGACTTGGGTTCTAACCTGTTGCAT (site ACTTGTACTAT)”: 0.0581; for “ACTTGGCCTTGGGTTCTAACCTGTTGCTG (site ACGTGGCCTCA)”: 0.111.
The same measure for “ACTTGGCCTTGGGTTCTAACCTGTTGCTG (site ACTTGGCCTCA)”: 0.0699.
Regarding “ACTTTCCCTTGGGTTCTAACCTGTTGCCT (site ACTTTCCCTAG)”, the “recombinant barcode read abundance (log10)” value came out at 0.424.
The same measure for “ACTTTCCCTTGGGTTCTAACCTGTTGCCT (site GCTTTGCCTAG)”: 0.0175; for “AGAAGCACTTGGGTTCTAACCTGTTGCCA (site AGAAGCACTTG)”: 0.783.
The same measure for “AGAAGCACTTGGGTTCTAACCTGTTGCCA (site CTGTCTCCTAC)”: 0.00729; for “AGAAGCCCTTGGGTTCTAACCTGTTGCCT (site AAAAGCCCTAG)”: 0.134; for “AGAAGCCCTTGGGTTCTAACCTGTTGCCT (site ACAAGCCCTAG)”: 0.269.
The same measure for “AGAAGCCCTTGGGTTCTAACCTGTTGCCT (site AGAAGCCCTAG)”: 1.51.
On to “AGAAGCCCTTGGGTTCTAACCTGTTGCCT (site ATAAGCCCTAG)”, for which the “recombinant barcode read abundance (log10)” value came out at 0.0722.
The same measure for “AGAAGTCCTTGGGTTCTAACCTGTTGCCG (site AGAAGTCCTCA)”: 0.236; for “AGAAGTCCTTGGGTTCTAACCTGTTGCCG (site AGAAGTCCTCC)”: 0.121.
“AGAAGTCCTTGGGTTCTAACCTGTTGCCG (site AGAAGTCCTCG)”: the “recombinant barcode read abundance (log10)” value turned out to be 0.971.
The same measure for “AGAAGTCCTTGGGTTCTAACCTGTTGCCG (site AGAAGTCCTCT)”: 0.221.
The same measure for “AGAATAGCTTGGGTTCTAACCTGTTGCAG (site AGAATAGCTCT)”: 2.13; for “AGAATAGCTTGGGTTCTAACCTGTTGCAG (site AGGATAGCTCA)”: 0.0664.
Turning to “AGAATGTCTTGGGTTCTAACCTGTTGCCT (site AGAACGTCTAG)”, the “recombinant barcode read abundance (log10)” value was 0.0676.
For “AGAATGTCTTGGGTTCTAACCTGTTGCCT (site AGAATGTCTAG)”, the “recombinant barcode read abundance (log10)” value was found to be 1.98.
The same measure for “AGACCTCCTTGGGTTCTAACCTGTTGCTT (site AGACATCCTAA)”: 0.0481.
The same measure for “AGACCTCCTTGGGTTCTAACCTGTTGCTT (site AGACCTCCTAA)”: 1.39.
The same measure for “AGACCTCCTTGGGTTCTAACCTGTTGCTT (site AGACGTCCTAA)”: 0.138; for “AGACCTCCTTGGGTTCTAACCTGTTGCTT (site AGACTTCCTAA)”: 0.0176; for “AGACCTTCTTGGGTTCTAACCTGTTGCCT (site ACACCGTCTAG)”: 0.0168.
“AGACCTTCTTGGGTTCTAACCTGTTGCCT (site AGACCTTCTAG)”: the “recombinant barcode read abundance (log10)” value amounted to 1.55.
The same measure for “AGACGTACTTGGGTTCTAACCTGTTGCGT (site AGACGTACTAC)”: 1.82.
The same measure for “AGACGTACTTGGGTTCTAACCTGTTGCGT (site TAGTTATCTTA)”: 0.102; for “AGAGAGACTTGGGTTCTAACCTGTTGCAC (site AGAGAGACTGT)”: 2.18.
On to “AGAGAGACTTGGGTTCTAACCTGTTGCAC (site TGATAGACTGT)”, for which the “recombinant barcode read abundance (log10)” value was determined as 0.169.
On to “AGAGAGACTTGGGTTCTAACCTGTTGCCT (site AGAGAGACTAG)”, for which the “recombinant barcode read abundance (log10)” value turned out to be 2.43.
With “AGAGAGACTTGGGTTCTAACCTGTTGCCT (site AGAGCGACTAG)”, the “recombinant barcode read abundance (log10)” value was 0.0685.
The same measure for “AGAGAGACTTGGGTTCTAACCTGTTGCCT (site AGAGGGACTAG)”: 0.27; for “AGAGAGACTTGGGTTCTAACCTGTTGCCT (site AGAGTGACTAG)”: 0.185.
The same measure for “AGAGCCTCTTGGGTTCTAACCTGTTGCTA (site AGAGCCTCTTA)”: 2.36; for “AGAGCCTCTTGGGTTCTAACCTGTTGCTA (site TTCAGGGCTCT)”: 0.0371; for “AGATCATCTTGGGTTCTAACCTGTTGCTT (site AGACCATCTAG)”: 0.0425.
With “AGATCATCTTGGGTTCTAACCTGTTGCTT (site AGATCATCTAA)”, the “recombinant barcode read abundance (log10)” value came to 0.278.
The same measure for “AGATCCGCTTGGGTTCTAACCTGTTGCCT (site AGATCCGCTAG)”: 1.3; for “AGATCCGCTTGGGTTCTAACCTGTTGCCT (site CGGTCCGCTAG)”: 0.346.
Take “AGATCTCCTTGGGTTCTAACCTGTTGCCT (site AGAGCTCCTCG)”: the “recombinant barcode read abundance (log10)” value was found to be 0.231.
The same measure for “AGATCTCCTTGGGTTCTAACCTGTTGCCT (site AGATCTCCTAG)”: 0.313.
The same measure for “AGATGGCCTTGGGTTCTAACCTGTTGCAT (site AGATGGACTCT)”: 0.152; for “AGATGGCCTTGGGTTCTAACCTGTTGCAT (site AGATGGCCTAT)”: 0.991; for “AGATGTACTTGGGTTCTAACCTGTTGCTG (site ACATGTACTCT)”: 0.0665.
For the sequence “AGATGTACTTGGGTTCTAACCTGTTGCTG (site AGATGTACTCA)”, the “recombinant barcode read abundance (log10)” value was 0.958.
Consider “AGATTAGCTTGGGTTCTAACCTGTTGCCG (site AGATTAGCTCG)”, for which the “recombinant barcode read abundance (log10)” value turned out to be 1.13.
As to “AGATTAGCTTGGGTTCTAACCTGTTGCCG (site GCGGATCCTTA)”, the “recombinant barcode read abundance (log10)” value came to 0.0251.
The same measure for “AGATTTCCTTGGGTTCTAACCTGTTGCCT (site AAATTTCCTAG)”: 0.0272; for “AGATTTCCTTGGGTTCTAACCTGTTGCCT (site ACATTTCCTAG)”: 0.218; for “AGATTTCCTTGGGTTCTAACCTGTTGCCT (site AGATTTCCTAG)”: 0.326.
The same measure for “AGATTTCCTTGGGTTCTAACCTGTTGCCT (site ATATTTCCTAG)”: 0.234; for “AGCAACCCTTGGGTTCTAACCTGTTGCAA (site AGCAACCCTTT)”: 0.829; for “AGCAACCCTTGGGTTCTAACCTGTTGCAA (site CCGGGTACTCG)”: 0.0862.
Consider “AGCACAACTTGGGTTCTAACCTGTTGCCT (site AGAACAACTAG)”, for which the “recombinant barcode read abundance (log10)” value worked out at 0.0799.

Values taken from the supplement of paper PMC11208160.
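Also: IS621 recombinase and bridge RNA in Escherichia coli cells.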
